Data taken from patent publication EP0280167A2, “Use of lipophile anthracyclines for the secondary treatment of anthracycline-resistant tumors, composition containing a lipophile anthracycline and preparation thereof” (BEHRINGWERKE Aktiengesellschaft, priority 1987, dated 1988).
Like-named read-outs stand apart in the source and are kept apart here.

What was measured:
[1] = system: sensitive L1210 Leukämiezellen; assay: Adriamycin uptake in sensitive L1210 cells with and without a lipophilic anthracycline (HPLC/fluorescence); assay type: cell-based; conditions: for Adriamycinaufnahme (in % der unbehandelten Kontrolle ohne Zusatz) L1210: 1 h, 37°C, sensitive L1210
Procedure: (§1) Zur Bestimmung der Adriamycinaufnahme wurden sensitive oder resistente Zellen (2 x 10⁵/ml) in dem Zellkulturmedium RPMI 1640 für 1h bei 37°C mit Adriamycin in Gegenwart und Abwesenheit eines lipophilen Anthracyclins inkubiert. Die Zellsuspension (5 ml) wurde danach zentrifugiert (1 min, 2000 g), das Zellpellet zweimal mit kalter phosphat-gepufferter Kochsalzlösung gewaschen und anschließend durch Zugabe von 100 µl ^RTriton X-100, 800 µl DNAse (Sigma, FRG) und 100 µl internem Standard (Daunomycin, 1 µg/ml) lysiert. Adriamycin und interner Standard wurden mit Hilfe von mit C18-Alkylresten derivatisiertem Kieselgel gefüllten Säulen (Bondelut C18, Analytichem) angereichert.
(§2) Nach Aktivierung dieser Säulen mit Methanol und Waschen mit doppelt destilliertem Wasser wurden die Proben auf die Säulen gegeben. Anschließend wurde mit doppelt destilliertem Wasser gewaschen und das gebundene Material mit 2 ml Chloroform/Methanol (2:1; v:v) eluiert. Nach dem Abdampfen des Lösungsmittelgemisches unter einem Stickstoffstrom wurden die Rückstände in jeweils 100 µl eines Gemisches aus 3 Teilen Acetonitril und 7 Teilen 20 mmol/l wässriger Phosphorsäure, pH 3 ("mobile Phase") gelöst. Die Auftrennung der Probenbestandteile erfolgte mit Hilfe der Hochdruckflüssigkeitschromatographie (20 µl Probe) über eine mit Nucleosil C18 (Partikelgrüße 5 µm) gefüllte Säule (12.5 x 0.46 cm).
(§3) Zur Detektion wurde ein Fluoreszenzdetektor bei einer Exitations- bzw. Emissionswellenlänge von 495 bzw. 590 nm verwendet. Die quantitative Analyse von Adriamycin erfolgte mit Hilfe eines Integrators durch Bestimmung der Peakflächen unter Berücksichtigung der wiedergefundenen Menge an internem Standard und Vergleich mit Proben, die bekannte Mengen an Adriamycin enthielten.

[2] = system: resistente L1210 Leukämiezellen; assay: Adriamycin uptake in adriamycin-resistant L1210 cells with and without a lipophilic anthracycline (HPLC/fluorescence); assay type: cell-based; conditions: for Adriamycinaufnahme (in % der unbehandelten Kontrolle ohne Zusatz) resistente L1210: 1 h, 37°C, resistant L1210; for Adriamycin-Aufnahme in adriamycinresistente L1210-Leukämiezellen: result in words, no concentration given
Procedure: (§4) Die Züchtung von adriamycin-resistenten L1210 Zellen erfolgte durch regelmäßig wiederholte, einstündige Inkubation von sensitiven L1210 Zellen mit steigenden Konzentrationen an Adriamycin bis ein Resistenzgrad (IC₅₀ resistente L1210/IC₅₀ sensitive L1210) gegenüber Adriamycin von etwa 80 erreicht war.
as §1, §2, §3

physchem = assay type: physicochemical; conditions: for logD: octanol/tris buffer
Procedure: Bestimmung des Oktanol-Wasser-Verteilungskoeffizienten P
Zu 1 ml einer 2-10 µmol/l Lösung der Anthracycline in oktanol-gesättigtem Tris-Puffer, pH 7, wurde 1 ml puffer-gesättigtes Oktanol gegeben und für etwa 1 h bei Raumtemperatur geschüttelt. Die wässrige Phase wurde anschliessend entnommen und die Substanzkonzentration in einem Fluoreszenzphotometer durch Vergleich mit Proben bekannter Konzentration bestimmt. Die Konzentration in der organischen Phase wurde durch Subtraktion der in der wässrigen Phase gefundenen Konzentration von der gesamten eingesetzten Konzentration ermittelt. Der Verteilungskoeffizient wurde berechnet nach der Formel: [formula]

[3] = system: nicht resistente L1210 Leukämiezellen; assay: Proliferation test: cytotoxicity of Adriamycin on non-resistant L1210 cells with a lipophilic anthracycline present; assay type: cell-based; conditions: influence of the added lipophilic anthracycline; result in words
resistente L1210 Zellen = assay: Proliferation test: cytotoxicity on adriamycin-resistant L1210 cells; assay type: cell-based; conditions: resistant line grown by repeated 1 h incubation with rising Adriamycin concentrations
Excerpt: as §4

[4] = pH 7, octanol / Tris buffer pH 7, room temperature, * means greater than, read-out: P (converted)
[5] = pH 7, statement in text, room temperature (20°C) in b7, read-out: Oktanol-Wasser Verteilungskoeffizient P (converted)

## CCCCCCN(C)[C@H]1C[C@H](O[C@H]2C[C@](O)(CC)[C@H](O)c3c(O)c4c(c(O)c32)C(=O)c2c(O)cccc2C4=O)O[C@@H](C)[C@H]1O [3'-N-Hexyl-3'-N-methyl-7-O-alpha-L-Daunosaminyl-ß-rhodomycinon]
[1]; anthracycline 1 µg/ml
  Adriamycinaufnahme (in % der unbehandelten Kontrolle ohne Zusatz) L1210: 97%
[1]; anthracycline 10 µg/ml
  Adriamycinaufnahme (in % der unbehandelten Kontrolle ohne Zusatz) L1210: 97%
[2]; anthracycline 1 µg/ml
  Adriamycinaufnahme (in % der unbehandelten Kontrolle ohne Zusatz) resistente L1210: 197%
[2]; anthracycline 10 µg/ml
  Adriamycinaufnahme (in % der unbehandelten Kontrolle ohne Zusatz) resistente L1210: 197%

## CC[C@@]1(O)C[C@H](O)c2c(O)c3c(c(O)c2[C@H]1C(=O)OC)C(=O)c1c(O)ccc(O)c1C3=O [epsilon-iso-Rhodomycinon]
physchem; room temperature (20°C) in b7
  Oktanol-Wasser Verteilungskoeffizient P: > 100
[1]; anthracycline 1 µg/ml
  Adriamycinaufnahme (in % der unbehandelten Kontrolle ohne Zusatz) L1210: 90%
[1]; anthracycline 10 µg/ml
  Adriamycinaufnahme (in % der unbehandelten Kontrolle ohne Zusatz) L1210: 87%
[2]; anthracycline 1 µg/ml
  Adriamycinaufnahme (in % der unbehandelten Kontrolle ohne Zusatz) resistente L1210: 146%
[2]; anthracycline 10 µg/ml
  Adriamycinaufnahme (in % der unbehandelten Kontrolle ohne Zusatz) resistente L1210: 144%
[2]
  Adriamycin-Aufnahme in adriamycinresistente L1210-Leukämiezellen: vergleichbare

## CC[C@@]1(O)C[C@H](O[C@H]2C[C@H](N(C)C)[C@H](O[C@H]3C[C@H](O)[C@H](O[C@H]4CCC(=O)[C@H](C)O4)[C@H](C)O3)[C@H](C)O2)c2c(cc3c(c2O)C(=O)c2c(O)cccc2C3=O)[C@H]1C(=O)OC [ACM, Aclacinomycin]
physchem; [4]
  logD: 2.28
physchem; [5]
  logD: ~2.3
[1]; result in words, no concentration given
  Adriamycin-Aufnahme in sensitive L1210 Zellen: nicht durch Aclacinomycin beeinflußt
[2]
  Adriamycin-Aufnahme in adriamycinresistente L1210-Leukämiezellen: Erhöhung
[3]
  zytotoxische Wirkung von Adriamycin auf nicht resistente L1210 Leukämiezellen: nur schwach im Sinne einer additiven Wirkung beeinflußt

## COc1cccc2c1C(=O)c1c(O)c3c(c(O)c1C2=O)C[C@@](O)(C(=O)CO)C[C@@H]3O[C@H]1C[C@H](N)[C@@H](O)[C@H](C)O1 [Epirubicin]
physchem; [5]
  logD: < 1

## CC[C@@]1(O)C[C@H](O)c2c(O)c3c(c(O)c2[C@H]1O)C(=O)c1cccc(O)c1C3=O [ß-Rhodomycinon]
physchem; room temperature (20°C) in b7
  Oktanol-Wasser Verteilungskoeffizient P: > 100
[1]; anthracycline 1 µg/ml
  Adriamycinaufnahme (in % der unbehandelten Kontrolle ohne Zusatz) L1210: 96%
[1]; anthracycline 10 µg/ml
  Adriamycinaufnahme (in % der unbehandelten Kontrolle ohne Zusatz) L1210: 96%
[2]; anthracycline 1 µg/ml
  Adriamycinaufnahme (in % der unbehandelten Kontrolle ohne Zusatz) resistente L1210: 116%
[2]; anthracycline 10 µg/ml
  Adriamycinaufnahme (in % der unbehandelten Kontrolle ohne Zusatz) resistente L1210: 186%
[2]
  Adriamycin-Aufnahme in adriamycinresistente L1210-Leukämiezellen: vergleichbare

## CC[C@@]1(O)CCc2c(O)c3c(c(O)c2[C@H]1O)C(=O)c1cccc(O)c1C3=O [gamma-Rhodomycinon]
physchem; room temperature (20°C) in b7
  Oktanol-Wasser Verteilungskoeffizient P: > 100
[2]
  Adriamycin-Aufnahme in adriamycinresistente L1210-Leukämiezellen: vergleichbare

## COc1cccc2c1C(=O)c1c(O)c3c(c(O)c1C2=O)C[C@@](O)(C(=O)CO)C[C@@H]3O[C@H]1C[C@H](N)[C@H](O)[C@H](C)O1 [Doxorubicin]
physchem; [5]
  logD: < 1
Resistente L1210 Zellen
  Resistenzgrad (IC₅₀ resistente L1210/IC₅₀ sensitive L1210): ~80

## CC[C@@]1(O)C[C@H](O)c2c(O)c3c(c(O)c2[C@H]1C(=O)OC)C(=O)c1cccc(O)c1C3=O [epsilon-Rhodomycinon]
physchem; [4]
  logD: > 3

## CCCCCN(C)[C@H]1C[C@H](O[C@H]2C[C@](O)(CC)[C@H](O)c3c(O)c4c(c(O)c32)C(=O)c2c(O)cccc2C4=O)O[C@@H](C)[C@H]1O [3'-N-Pentyl-3'-N-methyl-7-O-alpha-L-Daunosaminyl-ß-rhodomycinon]
[1]; anthracycline 1 µg/ml
  Adriamycinaufnahme (in % der unbehandelten Kontrolle ohne Zusatz) L1210: 87%
[1]; anthracycline 10 µg/ml
  Adriamycinaufnahme (in % der unbehandelten Kontrolle ohne Zusatz) L1210: 95%
[2]; anthracycline 1 µg/ml
  Adriamycinaufnahme (in % der unbehandelten Kontrolle ohne Zusatz) resistente L1210: 166%
[2]; anthracycline 10 µg/ml
  Adriamycinaufnahme (in % der unbehandelten Kontrolle ohne Zusatz) resistente L1210: 209%

## COc1cccc2c1C(=O)c1c(O)c3c(c(O)c1C2=O)C[C@@](O)(C(C)=O)C[C@@H]3O[C@H]1C[C@H](N)[C@H](O)[C@H](C)O1 [Daunomycin]
physchem; [4]
  logD: 0.653
physchem; [5]
  logD: < 1
